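How tested: cells in 96-well plates exposed to compound for 48 hours at five concentrations. The concentration for 50% growth inhibition is given as GI50. TGI: total growth inhibition.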
Tested on: MDA-MB-468 breast
Assay: DTP human tumour cell line panel, 48 h

CN(CC(=O)N(Cc1ccc(C2CCCCC2)cc1)c1ccc(C(=O)O)c(O)c1)S(=O)(=O)c1c(F)c(F)c(F)c(F)c1F showed a GI50 of 1760 nM and a TGI of 3760 nM.

Compound CCCCCCCCCCCCCC[n+]1ccc2c(C)c3c(c(C)c2c1)c1cc(O)ccc1n3CC has a GI50 of 176 nM and a TGI of 654 nM.

Work on COc1cc(Nc2ccnc(NCCCNc3ccnc4cc(Cl)ccc34)n2)cc(OC)c1 yielded a GI50 of 1490 nM and a TGI of 3180 nM.

O=[N+]([O-])c1c(Br)sc(Br)c1[N+](=O)[O-] was tested, and the GI50 was 1270 nM and the TGI was 2910 nM.

COc1cc2c(cc1Nc1nc(Nc3ccsc3C(N)=O)c3cc[nH]c3n1)N(C(=O)CN(C)C)CCC2(C)C showed a GI50 of 471 nM and a TGI of 2600 nM.

COc1cc(/C=C/C(=O)c2ccc(NC(=O)CN3CCN(c4cc5c(cc4F)c(=O)c(C(=O)O)cn5C4CC4)CC3)cc2)cc(OC)c1OC gave a GI50 of 358 nM.

In the case of Fc1ccc(Nc2nc3nonc3nc2Nc2ccc(F)cc2)cc1, the GI50 is reported as 281 nM and the TGI is reported as 1460 nM.

In the case of C[C@@H](CO)[C@@H]1CCC=C2CC[C@]3(C)[C@H](CC[C@@H]4[C@@]5(C)CCCNC(C)(C)[C@@H]5CC[C@]43C)[C@H]21, the GI50 is reported as 1800 nM and the TGI is reported as 3400 nM.

O=C1/C(=C/c2ccc(Cl)cc2)N=C(c2ccccc2)N1CCc1cccs1 showed a GI50 of 13700 nM and a TGI of 98200 nM.

CN(C)c1ccc(Nc2cc(-c3cccc(OC(F)(F)F)c3)nc3ccc(N4CCCC4)cc23)cc1 showed a GI50 of 2050 nM and a TGI of 4380 nM.

Oc1[nH]c2ccc(Cl)cc2c1/C=c1/ccc2c(c1)N=C(c1ccc(F)cc1)N=2 gave a GI50 of 2020 nM and a TGI of 3570 nM.

For NC(=O)c1ccc2nc(-c3ccc(Oc4ccc(Cl)cc4)cc3)[nH]c2c1, the GI50 was 10500 nM and the TGI was 29300 nM.

CC(=Nc1ccccc1)C1=C(O)C(Cc2ccccc2)NC1=O (configuration not stated) gave a GI50 of 17.3 nM and a TGI of 50.2 nM.

Work on CCCCCCCCCCCC1CCCC(C)N1 (configuration not stated) yielded a GI50 of 15500 nM and a TGI of 31000 nM.

In the case of Cc1cccc2c(=O)c3c(sc12)c(NCCNCCO)nc1ccccc13, the GI50 is reported as 1090 nM and the TGI is reported as 2500 nM.

Work on CCNC(=O)c1cc2c(-c3cc(C(C)(C)O)ccc3Oc3c(C)cc(F)cc3C)cn(C)c(=O)c2[nH]1 yielded a GI50 of 1170 nM and a TGI of 7450 nM.

Cc1cc(Cl)ccc1NC(=O)c1cc2ccccc2cc1O showed a GI50 of 1780 nM and a TGI of 7420 nM.

Work on Cc1ccc2ccc3ccc(C)nc3c2n1.Cc1ccc2ccc3ccc(C)nc3c2n1.Oc1c(Cl)cc(Cl)c2ccc(CN3CCCCC3)nc12.[Ru] yielded a GI50 of 248 nM and a TGI of 875 nM.

COc1ccc(-c2nc3ccccn3c2/C=C/C(=O)c2cc(OC)c(OC)c(OC)c2)cc1 gave a GI50 of 11900 nM and a TGI of 65500 nM.

With Nc1nc(-c2ccc(F)cc2)c(-c2ccc3ncccc3n2)s1 the TGI was > 25000 nM.

For Cc1cc(N(CCNc2ccnc3cc(Cl)ccc23)Cc2ccco2)nc(Cl)n1, the GI50 was 1500 nM and the TGI was 3070 nM.

With COc1ccc(Nc2c3ccccc3nc3ccccc23)cc1 the GI50 was 547 nM and the TGI was 4530 nM.

CC1(C)[C@@H](O[C@@H]2OC[C@@H](O[C@@H]3O[C@H](CO)[C@@H](O)[C@H](O)[C@H]3O[C@@H]3OC[C@@H](O)[C@H](O)[C@H]3O)[C@H](O)[C@H]2O[C@@H]2O[C@H](CO)[C@@H](O)[C@H](O)[C@H]2O)CC[C@]2(C)[C@H]3CC[C@]45OC[C@@]6(CC[C@](C)(C=O)C[C@H]64)[C@H](O)C[C@@]5(C)[C@]3(C)CC[C@@H]12 was tested, and the GI50 was 941 nM and the TGI was 1960 nM.

In the case of N#CSCC1CC(O)(c2ccccc2)CC(c2ccc(F)cc2)O1 (configuration not stated), the GI50 is reported as 2250 nM and the TGI is reported as 7550 nM.

O=C(NCc1ccc(Cn2c(=O)sn(-c3ccccc3)c2=O)cc1)OCc1ccc2c(Br)cc(Br)c(O)c2n1 was tested, and the GI50 was 500 nM and the TGI was 2010 nM.

For COc1ccc(Cn2cc3c(c2-c2ccc(OC)cc2)CCc2cnoc2-3)cc1, the GI50 was 254 nM and the TGI was 809 nM.

CN1CCN(c2ccc3nc(-c4ccc5nc(-c6ccc(OCCC(C)(C)C)cc6)[nH]c5c4)[nH]c3c2)CC1 gave a GI50 of 1910 nM and a TGI of 4130 nM.

Compound O=C(Nc1ccc2ncnc(Nc3ccc(Oc4cccc(F)c4)c(Cl)c3)c2c1)c1ccc(CNCCO)cc1 has a GI50 of 561 nM and a TGI of 2020 nM.

In the case of CC(=O)O[C@]1(C(C)=O)CC[C@H]2[C@@H]3C=C(C)C4=CC(=O)CC[C@]4(C)[C@H]3CC[C@@]21C, the GI50 is reported as 77700 nM and the TGI is reported as > 100000 nM.

Nc1nc(-c2ccccc2)nc(N)c1N=O was tested, and the GI50 was 1750 nM and the TGI was 5700 nM.

NC(=O)c1cc(-c2ccc(F)cc2)cc(-c2ccncc2)c1N was tested, and the GI50 was 8170 nM and the TGI was > 25000 nM.

In the case of COc1ccc(OC)c(/C=C(/C)[N+](=O)[O-])c1, the GI50 is reported as 1270 nM and the TGI is reported as 2680 nM.

For CC[C@@H](C(=O)[C@@H](C)[C@@H](O)[C@H](C)[C@@H]1O[C@@H]([C@@H](CC)C(=O)N(CC)CC)CC[C@@H]1C)C1O[C@]2(C=CC(=O)[C@]3(CC[C@@](C)([C@H]4CC[C@](O)(CC)[C@H](C)O4)O3)O2)[C@H](C)C[C@@H]1C (some centres not stated), the GI50 was 943 nM and the TGI was 3190 nM.

CN1c2ccccc2C(C)(C)C12C=Cc1cc(O)ccc1O2 (configuration not stated) showed a GI50 of 3460 nM and a TGI of 16700 nM.

In the case of CCC1CCc2nc3sc(C(=O)Nc4cccc(F)c4)c(N)c3cc2C1 (configuration not stated), the GI50 is reported as 471 nM and the TGI is reported as > 100000 nM.

Cc1c(COc2cc(OCc3cccc(C#N)c3)c(CN3C[C@H](O)C[C@@H]3C(=O)O)cc2Cl)cccc1-c1ccc2c(c1)OCCO2 showed a GI50 of 6720 nM and a TGI of 20500 nM.

O=C(/C=C/c1cc([N+](=O)[O-])ccc1Cl)c1ccccc1 gave a GI50 of 8460 nM and a TGI of 22100 nM.

From PubChem BioAssay (NCI)
